Laboratory results from US11116771B2, “G protein-coupled receptor (GPCR) modulation by imipridones” (Oncoceutics, Inc., priority 2016, dated 2021).
Like-named read-outs stand apart in the source and are kept apart here.

Columns and labels:
Assay type in all cases: cell-based
[1] = test system: Staphylococcus aureus ATCC 700699; experiment: MIC by micro-broth dilution, S. aureus ATCC 700699; conditions: ATCC700699
[2] = test system: Staphylococcus aureus ATCC 33591; experiment: MIC by micro-broth dilution, S. aureus ATCC 33591; conditions: ATCC33591
[3] = test system: human cancer cells; experiment: Viability of human cancer cells at 72 hours post-treatment; conditions: relative to the potency of ONC201; viability of human cancer cells at 72 hours post-treatment

SMILES	Relative Potency* [3]	also measured
COc1cccc(OC)c1C(=O)N[C@@H]1C(=O)N2[C@@H]1SC(C)(C)[C@@H]2C(=O)O [Methicillin, reference compound]		MIC ([1]; MDR Staphylococcus aureus (ATCC 700699), read-out: MIC): > 100 µg/mL; MIC90 ([1]; Staphylococcus aureus, ATCC 700699 (48 hours), read-out: MIC90): > 100 µg/mL; MIC ([1]; Staphylococcus aureus, ATCC 700699 (48 hours), read-out: MIC95): > 100 µg/mL; MIC99 ([1]; Staphylococcus aureus, ATCC 700699 (48 hours), read-out: MIC99): > 100 µg/mL; MIC ([1]; Staphylococcus aureus, ATCC 700699 (48 hours), read-out: MIC, Visual): > 100 µg/mL; MIC ([2]; Staphylococcus aureus (ATCC 33591), methicillin resistant, read-out: MIC): > 100 µg/mL; MIC90 ([2]; Staphylococcus aureus, ATCC 33591, 24 hours, read-out: MIC90): > 100 µg/mL; MIC ([2]; Staphylococcus aureus, ATCC 33591, 24 hours, read-out: MIC95): > 100 µg/mL; MIC99 ([2]; Staphylococcus aureus, ATCC 33591, 24 hours, read-out: MIC99): > 100 µg/mL; MIC ([2]; Staphylococcus aureus, ATCC 33591, 24 hours, read-out: MIC, Visual): > 100 µg/mL
O=C1C2=C(CCN(Cc3ccccc3)C2)N2CCN=C2N1CCc1ccccc1 [ONC204]	C (C Indicates a potency decrease of >2-fold of ONC201)	
O=C1C2=C(CCN(Cc3ccccc3)C2)N2CCN=C2N1CCN1CCN(Cc2ccccc2)CC1 [ONC205]	C (C Indicates a potency decrease of >2-fold of ONC201)	
Cc1ccccc1CN1C(=O)C2=C(CCN(C)C2)N2CCN=C12 [ONC208]	B (B Indicates potency that is within 2-fold of ONC201)	
Cc1ccccc1CN1C(=O)C2=C(CCN(CCc3ccccc3)C2)N2CCN=C12 [ONC209]	B (B Indicates potency that is within 2-fold of ONC201)	
O=C1C2=C(CCN(Cc3ccccc3)C2)N2CCN=C2N1Cc1cc(F)cc(F)c1 [ONC210]	B (B Indicates potency that is within 2-fold of ONC201)	
O=C1C2=C(CCN(Cc3ccccc3)C2)N2CCN=C2N1Cc1ccc(Cl)c(Cl)c1 [ONC211]	B (B Indicates potency that is within 2-fold of ONC201)	
Cc1ccccc1CN1C(=O)C2=C(CCN(CCCN)C2)N2CCN=C12 [ONC216]	B (B Indicates potency that is within 2-fold of ONC201)	
O=C1C2=C(CCN(Cc3ccccc3)C2)N2CCN=C2N1Cc1ccccc1F [ONC217]	C (C Indicates a potency decrease of >2-fold of ONC201)	
Cc1cc(F)ccc1CN1C(=O)C2=C(CCN(Cc3ccccc3)C2)N2CCN=C12 [ONC218]	A (A Indicates a potency increase of >2-fold of ONC201)	
O=C1C2=C(CCN(Cc3ccccc3)C2)N2CCN=C2N1Cc1ccc(Cl)cc1Cl [ONC219]	A (A Indicates a potency increase of >2-fold of ONC201)	
COc1ccc(CN2C(=O)C3=C(CCN(Cc4ccccc4)C3)N3CCN=C23)cc1 [ONC220]	A (A Indicates a potency increase of >2-fold of ONC201)	
O=C1C2=C(CCNC2)N2CCN=C2N1Cc1ccc(C(F)(F)F)cc1 [ONC221]	A (A Indicates a potency increase of >2-fold of ONC201)	
O=C1C2=C(CCN(Cc3ccccc3)C2)N2CCN=C2N1CC1CCON1 (centres unmarked) [ONC222]	C (C Indicates a potency decrease of >2-fold of ONC201)	
Cc1ccc(CN2C(=O)C3=C(CCN(Cc4ccccc4)C3)N3CCN=C23)cc1 [ONC223]	A (A Indicates a potency increase of >2-fold of ONC201)	
O=C1C2=C(CCN(Cc3ccccc3)C2)N2CCN=C2N1CCN1CCOCC1 [ONC224]	A (A Indicates a potency increase of >2-fold of ONC201)	
O=C1C2=C(CCN(Cc3ccccc3)C2)N2CCN=C2N1Cc1ccc(C(F)(F)F)cc1F [ONC225]	A (A Indicates a potency increase of >2-fold of ONC201)	
O=C1C2=C(CCN(Cc3ccccc3)C2)N2CCN=C2N1Cc1cccnc1 [ONC226]	A (A Indicates a potency increase of >2-fold of ONC201)	
O=C1C2=C(CCN(Cc3ccc(C(F)(F)F)cc3)C2)N2CCN=C2N1Cc1ccc(C(F)(F)F)cc1 [ONC227]	B (B Indicates potency that is within 2-fold of ONC201)	
O=C1C2=C(CCN(Cc3ccc(F)cc3)C2)N2CCN=C2N1Cc1ccc(C(F)(F)F)cc1 [ONC228]	A (A Indicates a potency increase of >2-fold of ONC201)	
COc1ccc(CN2CCC3=C(C2)C(=O)N(Cc2ccc(C(F)(F)F)cc2)C2=NCCN23)cc1 [ONC229]	B (B Indicates potency that is within 2-fold of ONC201)	
O=C(CCCN1CCC2=C(C1)C(=O)N(Cc1ccc(C(F)(F)F)cc1)C1=NCCN12)c1ccc(F)cc1 [ONC230]	A (A Indicates a potency increase of >2-fold of ONC201)	
O=C1C2=C(CCN(Cc3cccnc3)C2)N2CCN=C2N1Cc1ccc(C(F)(F)F)cc1 [ONC231]	A (A Indicates a potency increase of >2-fold of ONC201)	
